From PubChem BioAssay AID1996
≈ marks a conversion by molar mass, not a printed value.

Conditions: buffer; pH 7.4; 200.0 µM

Structure (SMILES) | solubility kinetic
CC1CN(C(=O)COC(=O)c2ccc(O)cc2)CC(C)O1 (stereo unspecified) | 43.8 µg/mL (≈ 149 µM)
O=C(NCc1ccc(Cl)cc1)c1nccnc1CO | 40.5 µg/mL (≈ 146 µM)
Cc1ccc(NC(=O)C/C(N)=N/O)cc1Cl | > 36.3 µg/mL
NC(=S)Nc1nc2ccccc2s1 | 25.8 µg/mL (≈ 123 µM)
CC1CN(C(=O)/C(=C/c2ccco2)NC(=O)c2ccccc2)CC(C)O1 (stereo unspecified) | > 53.2 µg/mL
CC(=O)SC1CC(=O)N(c2c(C)cccc2C)C1=O (stereo unspecified) | > 41.6 µg/mL
NC(=O)c1ccc(NC(=O)COC(=O)CC2CC3CCC2C3)cc1 (stereo unspecified) | 13 µg/mL (≈ 39.3 µM)
O=C(O)c1ccccc1NCc1cccs1 | 23.8 µg/mL (≈ 102 µM)
S=C(NCCCN1CCOCC1)N1CCOCC1 | > 41 µg/mL
Cc1cccc(SCC(=O)Nc2ccc3c(c2)OCCO3)c1 | 36.4 µg/mL (≈ 115 µM)
CC1(C)CC(=O)c2cnc(NC(=O)CSC(=S)N3CCCCC3)nc2C1 | 2.9 µg/mL (≈ 7.39 µM)
CC(NCc1ccccc1)c1ccccc1O (stereo unspecified) | 27.2 µg/mL (≈ 120 µM)
CCOC(=O)C1=C(COC(=O)c2ccc([N+](=O)[O-])s2)NC(=O)NC1C (stereo unspecified) | > 55.4 µg/mL
COCCCNC(=S)Nc1ccccc1[N+](=O)[O-] | > 40.4 µg/mL
CC(=O)c1ccc(NC(=S)NCC(c2ccco2)N2CCCC2)cc1 (stereo unspecified) | 52.5 µg/mL (≈ 147 µM)
Cn1c(=O)c2c(ncn2CCO)n(C)c1=O | > 33.6 µg/mL
O=C(/C=C/c1ccco1)N1CCN(S(=O)(=O)c2ccccc2)CC1 | > 52 µg/mL
Cc1ccccc1NC(=S)NNC(=O)c1ccncc1 | > 43 µg/mL
O=C(O)CCc1ccc(-c2ccccc2)n1-c1ccc(C(=O)O)cc1 | 47 µg/mL (≈ 140 µM)
Fc1ccccc1-c1nc(-c2ccc(Br)o2)no1 | < 0.3 µg/mL
O/N=C/c1nc2cc(Cl)ccc2o1 | > 29.5 µg/mL

Structure (SMILES) | solubility kinetic
CC(C)Oc1ccc(CNC(=S)Nc2ccccc2)cc1Cl | 7.2 µg/mL (≈ 21.5 µM)
CCC1(C)NC(C(=O)O)Cc2c1[nH]c1ccccc21 (stereo unspecified) | > 38.7 µg/mL
O=C(O)CNC(=S)N(Cc1ccccc1Cl)C1CCCCC1 | 49.1 µg/mL (≈ 144 µM)
CC(NC(=O)c1cc2cc(Cl)ccc2oc1=N)c1ccccc1 (stereo unspecified) | 4.2 µg/mL (≈ 12.9 µM)
O=C(CSc1nnc2ccccn12)Nc1ccc(N2CCOCC2)cc1 | > 55.4 µg/mL
O=C(CCl)Nc1ccccc1C(=O)c1ccccc1 | > 41.1 µg/mL
CC1Cc2ccccc2N1C(=O)COc1ccc2c(c1)OCO2 (stereo unspecified) | 43.1 µg/mL (≈ 138 µM)
Cc1ccccc1Oc1ccccc1N | 3.9 µg/mL (≈ 19.6 µM)
O=C(Nc1nc(-c2cccs2)c(C(=O)C(F)(F)F)s1)c1ccco1 | 3.8 µg/mL (≈ 10.2 µM)
COc1ccc(NC(=O)COC(=O)CCc2ccc(S(=O)(=O)N3CCOCC3)cc2)c(OC)c1 | 11 µg/mL (≈ 22.3 µM)
Cc1ccc(C(=O)Nc2cccnc2Cl)cc1Cl | 32.9 µg/mL (≈ 117 µM)
COc1ccc(CCC(=O)NCCc2ccc(Cl)cc2)cc1 | 3.7 µg/mL (≈ 11.6 µM)
CC(C)(C)OC(=O)NC(CC(=O)OCc1ccccc1)C(=O)O (stereo unspecified) | > 48.5 µg/mL
Cc1csc2c(=O)sc(NC(=O)c3ccc(F)cc3)nc12 | < 0.3 µg/mL
CC(=O)Nc1ccc2nsnc2c1 | > 29 µg/mL
Cc1cccc(NC(=O)C2CC3CCC2C3)c1C (stereo unspecified) | 10.5 µg/mL (≈ 43.1 µM)
Cc1ccc(S(=O)(=O)CCC(=O)Nc2cccc(Cl)c2)cc1 | 23.9 µg/mL (≈ 70.7 µM)
Cc1ccccc1CC(=O)N1CCOCC1 | > 32.9 µg/mL
O=[N+]([O-])c1ccc(OCc2n[nH]c(=S)n2-c2ccccc2)cc1 | > 49.3 µg/mL
Cc1cc(C(=O)Cn2c(CO)nc3ccccc32)c(C)n1C | > 44.6 µg/mL
CCCCOc1ccc(CON(C(C)=O)C(C)=O)cc1Cl | 2.6 µg/mL (≈ 8.29 µM)

Structure (SMILES) | solubility kinetic
NC(=S)N1CCCc2ccccc21 | > 28.8 µg/mL
Cc1ccnc(NC(=O)c2ccc([N+](=O)[O-])s2)c1 | 4 µg/mL (≈ 15.2 µM)
O=C(CNc1cccc(Cl)c1)c1ccc(Br)cc1 | < 0.7 µg/mL
CCCN1CCN(CCNC(=O)Nc2cc(C)ccc2C)CC1 | > 47.8 µg/mL
O=C(COC(=O)C1CC1)Nc1ccc(Cl)cc1Cl | 41.9 µg/mL (≈ 145 µM)
COc1ccccc1NC(=O)COC(=O)CCC1CCCC1 | 42.1 µg/mL (≈ 138 µM)
Cc1ccc(C(=O)OCC(=O)NCc2cccs2)s1 | > 44.3 µg/mL
Cc1ccc(SCC(=O)NCc2ccc(F)cc2)cc1 | 9.5 µg/mL (≈ 32.8 µM)
CCCC(=O)NC(=S)Nc1ccc(CN2CCOCC2)cc1 | > 48.2 µg/mL
COc1cccc(NC(=O)c2nc(SC)ncc2Cl)c1 | 2.4 µg/mL (≈ 7.75 µM)
CC(C)N1CC(C(=O)Nc2ccc(C#N)cc2)CC1=O (stereo unspecified) | > 40.7 µg/mL
CCCOc1ccc(Oc2nc(-c3ccncc3)nc3ccccc23)cc1 | < 0.3 µg/mL
CCc1cc(=O)oc2cc(OCC(=O)N3CCC[C@H]3C(=O)O)ccc12 | > 51.8 µg/mL
CC(Oc1ccc(-c2nnco2)cc1)C(=O)N1CCOCC1 (stereo unspecified) | > 45.5 µg/mL
COc1cccc(OC)c1C(=O)Nc1nc(-c2ccccc2)cs1 | 1.6 µg/mL (≈ 4.7 µM)
CCN1CCN(CC(=O)Nc2cc(S(=O)(=O)N(CC)c3ccccc3)ccc2Cl)CC1.Cl | > 75.2 µg/mL
Oc1ccc(-c2nccc(-c3ccc(F)cc3)n2)cc1 | 2.1 µg/mL (≈ 7.89 µM)
CCOC(=O)/C(C#N)=C/C1=C(N2CCOCC2)CC(C)(C)OC1 | > 48.1 µg/mL
Cc1nc(SCC(=O)Nc2ccc(S(=O)(=O)N3CCOCC3)cc2)c2c(C)c(C)sc2n1 | 7.3 µg/mL (≈ 14.8 µM)
